# Columns and labels:
# [1] = target: T1, Ephrin type-B receptor 6 (Homo sapiens) (UniProt O15197); experiment: Competitive binding affinity to human EPHB6 at 500 nM incubated for 1 hr by qPCR analysis relative to control
# T1 sequence (whole entry): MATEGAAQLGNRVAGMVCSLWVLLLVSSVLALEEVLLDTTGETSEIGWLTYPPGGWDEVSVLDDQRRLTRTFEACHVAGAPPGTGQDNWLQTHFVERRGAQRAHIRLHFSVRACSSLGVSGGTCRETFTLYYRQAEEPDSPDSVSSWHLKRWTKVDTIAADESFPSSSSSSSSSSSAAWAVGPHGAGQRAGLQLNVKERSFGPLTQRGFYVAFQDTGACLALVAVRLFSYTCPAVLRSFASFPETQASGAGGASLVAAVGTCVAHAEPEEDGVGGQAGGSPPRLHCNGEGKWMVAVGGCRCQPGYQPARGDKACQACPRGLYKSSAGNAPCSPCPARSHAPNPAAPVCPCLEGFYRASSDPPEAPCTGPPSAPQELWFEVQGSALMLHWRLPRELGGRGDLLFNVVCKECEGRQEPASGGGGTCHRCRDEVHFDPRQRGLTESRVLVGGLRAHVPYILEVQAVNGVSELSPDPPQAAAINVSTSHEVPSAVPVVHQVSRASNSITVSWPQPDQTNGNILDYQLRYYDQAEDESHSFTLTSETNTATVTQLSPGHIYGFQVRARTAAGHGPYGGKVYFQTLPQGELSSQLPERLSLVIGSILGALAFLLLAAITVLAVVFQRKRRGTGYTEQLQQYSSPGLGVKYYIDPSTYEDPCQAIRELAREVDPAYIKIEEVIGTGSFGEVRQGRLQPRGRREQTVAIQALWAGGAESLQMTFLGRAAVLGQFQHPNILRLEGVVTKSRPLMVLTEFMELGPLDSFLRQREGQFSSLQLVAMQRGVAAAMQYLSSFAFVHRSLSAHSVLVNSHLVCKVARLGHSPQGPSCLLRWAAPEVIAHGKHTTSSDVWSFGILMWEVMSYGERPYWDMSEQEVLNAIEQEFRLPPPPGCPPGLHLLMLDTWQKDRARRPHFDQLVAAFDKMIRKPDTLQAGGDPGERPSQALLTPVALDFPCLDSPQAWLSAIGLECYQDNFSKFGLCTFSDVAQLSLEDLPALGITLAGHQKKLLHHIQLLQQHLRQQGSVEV
# [2] = target: T2, Macrophage colony-stimulating factor 1 receptor (Mus musculus) (UniProt P09581); experiment: Inhibition of CSF1-induced CSF1R signalling in mouse BMDM cells assessed as reduction in ERK1/2 phosphorylation by measuring fold change preincubated for 30 mins followed by CSF1 addition and measured after 10 mins relative to pexidartinib; assay type: cell-based; conditions: time 40.0 min
# T2 sequence (whole entry): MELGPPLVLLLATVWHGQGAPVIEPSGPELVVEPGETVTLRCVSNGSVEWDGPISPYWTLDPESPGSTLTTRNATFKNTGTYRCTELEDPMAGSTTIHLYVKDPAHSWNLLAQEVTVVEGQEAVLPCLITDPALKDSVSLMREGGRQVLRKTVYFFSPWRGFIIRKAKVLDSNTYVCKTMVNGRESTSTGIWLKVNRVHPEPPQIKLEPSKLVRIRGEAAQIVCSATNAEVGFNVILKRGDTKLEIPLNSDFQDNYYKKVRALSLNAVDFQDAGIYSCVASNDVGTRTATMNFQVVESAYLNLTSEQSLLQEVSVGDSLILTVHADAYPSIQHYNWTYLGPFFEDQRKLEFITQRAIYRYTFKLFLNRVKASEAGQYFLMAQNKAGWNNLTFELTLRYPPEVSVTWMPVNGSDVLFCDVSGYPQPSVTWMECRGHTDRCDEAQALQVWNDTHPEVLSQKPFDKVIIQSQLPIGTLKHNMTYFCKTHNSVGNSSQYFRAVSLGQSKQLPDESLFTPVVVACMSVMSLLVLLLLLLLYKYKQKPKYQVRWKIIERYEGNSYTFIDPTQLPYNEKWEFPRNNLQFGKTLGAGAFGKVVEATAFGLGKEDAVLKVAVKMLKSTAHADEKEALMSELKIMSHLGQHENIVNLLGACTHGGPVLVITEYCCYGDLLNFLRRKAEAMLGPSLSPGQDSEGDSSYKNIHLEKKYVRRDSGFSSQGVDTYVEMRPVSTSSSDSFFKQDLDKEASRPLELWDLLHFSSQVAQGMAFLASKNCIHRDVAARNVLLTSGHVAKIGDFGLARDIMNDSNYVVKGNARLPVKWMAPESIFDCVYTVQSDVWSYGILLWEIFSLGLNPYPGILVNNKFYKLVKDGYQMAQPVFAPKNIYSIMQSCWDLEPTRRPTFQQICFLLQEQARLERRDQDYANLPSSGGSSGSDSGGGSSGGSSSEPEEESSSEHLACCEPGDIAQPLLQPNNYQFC
structure (smiles),measurement,setting,value
CN(CC1CCCC1)c1ncnc2[nH]c(-c3ccc(CO)cc3)nc12,Activity,[1],87%
same,fold change (FC),[2],0.4
